From patent US6342508B1, “N-hydroxy-2-(Alkyl,Aryl or Heteroaryl sulfanyl, sulfinyl or sulfonyl) 3-substituted alkyl, aryl or heteroarylamides as matrix metalloproteinase inhibitors” (American Cyanamid Company, priority 1997, dated 2002)
Structures can show the parent of a compound that is named as a salt.

Row | Compound | melting point [°C]
1 | CCCCCC#CCC(Cc1cccnc1)(C(=O)NO)S(=O)(=O)c1ccc(OC)cc1 (stereo not shown) (as salt: salt) [Example 74, 2-(4-Methoxy-benzenesulfonyl)-2-pyridin-3-ylmethyl-dec-4-ynoic acid hydroxyamide] | 65
2 | CC#CCC(Cc1cccnc1)(C(=O)NO)S(=O)(=O)c1ccc(F)cc1 (stereo not shown) (as salt: salt) [Example 76, 2-(4-Fluoro-benzenesulfonyl)-2-pyridin-3-ylmethyl-hex-4-ynoic acid hydroxyamide] | 190
3 | CCCCCC#CCC(Cc1cccnc1)(C(=O)NO)S(=O)(=O)c1ccc(F)cc1 (stereo not shown) (as salt: salt) [Example 77, 2-(4-Fluoro-benzenesulfonyl)-2-pyridin-3-ylmethyl-dec-4-ynoic acid hydroxyamide] | 180 to 182
4 | COc1ccc(SC(C)(Cc2ccccc2)C(=O)NO)cc1 (stereo not shown) [Example 1, N-Hydroxy-2-(4-methoxy-phenylsulfanyl)-2-methyl-3-phenyl-propionamide] | 88
5 | COc1ccc(SC(C(=O)NO)c2ccccc2)cc1 (stereo not shown) [Example 2, N-Hydroxy-2-(4-methoxy-phenylsulfanyl)-2-phenyl-acetamide] | 155
6 | COc1ccc(SC(C)(CC=C(C)C)C(=O)NO)cc1 (stereo not shown) [Example 3, 2-(4-Methoxy-phenylsulfanyl)-2,5-dimethyl-hex-4-enoic acid hydroxyamide] | 89
7 | COc1ccc(SC(C(=O)NO)C(C)C)cc1 (stereo not shown) [Example 4, N-Hydroxy-2-(4methoxy-phenylsulfanyl)-3-methyl-butyramide] | 119
8 | COc1ccc([S+]([O-])C(C)(CC=C(C)C)C(=O)NO)cc1 (stereo not shown) [Example 6, 2-(4-Methoxy-benzenesulfinyl)-2,5-dimethyl-hex-4-enoic acid hydroxyamide] | 108
9 | COc1ccc([S+]([O-])C(C(=O)NO)C(C)C)cc1 (stereo not shown) [Example 7, N-Hydroxy-2-(4-methoxy-benzenesulfinyl)-3-methyl-butyramide] | 163
10 | COc1ccc(S(=O)(=O)C(Cc2ccccc2)C(=O)NO)cc1 (stereo not shown) [Example 9, N-Hydroxy-2-(4-methoxy-benzenesulfonyl)-3-phenyl-propionamide] | 180
11 | CCCCC(C(=O)NO)S(=O)(=O)c1ccc(OC)cc1 (stereo not shown) [Example 10, 2-(4-Methoxy-benzenesulfonyl)-hexanoic acid hydroxyamide] | 130
12 | CCCCCCCCCCCCC(C(=O)NO)S(=O)(=O)c1ccc(OC)cc1 (stereo not shown) [Example 11, 2-(4-Methoxy-benzenesulfonyl)-tetradecanoic hydroxyamide] | 114
13 | COc1ccc(S(=O)(=O)C(C)(Cc2ccccc2)C(=O)NO)cc1 (stereo not shown) [Example 12, N-Hydroxy-2-(4-methoxy-benzenesulfonyl)-2-methyl-3-phenyl-propionamide] | 58
14 | COc1ccc(S(=O)(=O)C(C)(Cc2ccc(-c3ccccc3)cc2)C(=O)NO)cc1 (stereo not shown) [Example 14, 3-(Biphenyl-4-yl)-N-hydroxy-2-(4-methoxy-benzenesulfonyl)-2-methyl-propionamide] | 177
15 | COc1ccc(S(=O)(=O)C(C)(CC2CCCCC2)C(=O)NO)cc1 (stereo not shown) [Example 16, 3-Cyclohexyl-N-hydroxy-2-(4-methoxy-benzenesulfonyl)-2-methyl-propionamide] | 58
16 | COc1ccc(S(=O)(=O)C(C)(Cc2ccc(OCCN3CCCCCC3)cc2)C(=O)NO)cc1 (stereo not shown) [Example 18] | 68
17 | CCCC(Cc1ccc(OCCN2CCCCCC2)cc1)(C(=O)NO)S(=O)(=O)c1ccc(OC)cc1 (stereo not shown) [Example 19, 2-[4-(2-Azepan-1-yl-ethoxy)-benzyl]-2-(4-methoxy-benzenesulfonyl)-pentanoic acid hydroxyamide] | 85
18 | COc1ccc(S(=O)(=O)C(C)(Cc2cccc(OCCN3CCCCC3)c2)C(=O)NO)cc1 (stereo not shown) [Example 22, N-Hydroxy-2-(4-methoxy-benzenesulfonyl)-2-methyl-3-[3-(2-piperidin-1-yl-ethoxy)-phenyl]-propionamide] | 74
19 | CCCCC(Cc1ccc(OCCN(CC)CC)cc1)(C(=O)NO)S(=O)(=O)c1ccc(OC)cc1 (stereo not shown) [Example 27, 2-[4-(2-Diethylamino-ethoxy)-benzyl]-2-(4-methoxy-benzenesulfonyl)-hexanoic acid hydroxyamide] | 67
20 | COc1ccc(S(=O)(=O)C(C)(Cc2cccc(OCCN3CCOCC3)c2)C(=O)NO)cc1 (stereo not shown) [Example 30, N-Hydroxy-2-(4-methoxy-benzenesulfonyl)-2-methyl-3-[3-(2-morpholin-1-yl-ethoxy)-phenyl]-propionamide] | 63
21 | COc1ccc(S(=O)(=O)C(C)(CCCCN2C(=O)c3ccccc3C2=O)C(=O)NO)cc1 (stereo not shown) [Example 31, 6-(1,3-Dioxo-1,3-dihydro-isoindol-2-yl)-2(4-methoxy-benzenesulfonyl)-2-methyl-hexanoic acid hydroxyamide] | 146 to 148
22 | CCC(Cc1ccc(OCCN2CCOCC2)cc1)(C(=O)NO)S(=O)(=O)c1ccc(OC)cc1 (stereo not shown) [Example 33, N-Hydroxy-2-(4-methoxy-benzenesulfonyl)-2-[4-(2-morpholin-4yl-ethoxy)-benzyl]-butyramide] | 51

Row | Compound | melting point [°C]
23 | CCC(Cc1ccc(OCCN2CCCCC2)cc1)(C(=O)NO)S(=O)(=O)c1ccc(OC)cc1 (stereo not shown) [Example 34, N-Hydroxy-2-(4-methoxy-benzenesulfonyl)-2-[4-(2-piperdin-1-yl-ethoxy)-benzyl]-butyramide] | 75
24 | CCCCCCC(Cc1ccc(OCCN2CCCCCC2)cc1)(C(=O)NO)S(=O)(=O)c1ccc(OC)cc1 (stereo not shown) [Example 36, 2-[4-(2-Azepan-1-yl-ethoxy)-benzyl]-2-(4-Methoxy-benzenesulfonyl)-octanoic acid hydroxyamide] | 65
25 | CCCCCCC(Sc1ccc(F)cc1)C(=O)NO (stereo not shown) [Example 38, 2-(4-Fluoro-phenylsulfanyl)-octanoic acid hydroxyamide] | 58
26 | COc1ccc(S(=O)(=O)C(Cc2ccc3ccccc3c2)C(=O)NO)cc1 (stereo not shown) [Example 40, N-Hydroxy-2-(4-methoxy-benzenesulfonyl)-3-naphthalen-2-yl-propionamide] | 161 to 163
27 | Cn1ccnc1S(=O)(=O)C(C)(Cc1ccc(-c2ccccc2)cc1)C(=O)NO (stereo not shown) [Example 47, 3-Biphenyl-4-yl-2-methyl-2-(1-methyl-1H-imidazole-2-sulfonyl)-propionic acid hydroxyamide] | 112
28 | COc1ccc(S(=O)(=O)C(C)(Cc2ccc(Br)cc2)C(=O)NO)cc1 (stereo not shown) [Example 51, 3-(4-Bromo-phenyl)-N-hydroxy-2-(4-methoxy-benzenesulfonyl)-2-methyl-propionamide] | 86 to 88
29 | COc1ccc(S(=O)(=O)C(C)(Cc2ccc3ccccc3c2)C(=O)NO)cc1 (stereo not shown) [Example 52, N-hydroxy-2-(4-methoxy-benzenesulfonyl)-2-methyl-3-naphthalen-2-yl-propionamide] | 185 to 187
30 | COc1ccc(S(=O)(=O)C(C(=O)NO)C(C)C)cc1 (stereo not shown) [Example 53, N-Hydroxy-2-(4methoxy-benzenesulfonyl)-3-methyl-butyramide] | 220
31 | COc1ccc(S(=O)(=O)C2(C(=O)NO)CCCC2)cc1 [Example 54, 1-(4-Methoxy-benzenesulfonyl)-cyclopentanecarboxylic acid hydroxyamide] | 89 to 91
32 | COc1ccc(S(=O)(=O)C(C)(Cc2ccccc2Br)C(=O)NO)cc1 (stereo not shown) [Example 55, 3-(2-Bromo-phenyl)-N-hydroxy-2-(4-methoxy-benzenesulfonyl)-2-methyl-propionamide] | 93 to 96
33 | COc1ccc(S(=O)(=O)C(C)(CC=Cc2ccccc2)C(=O)NO)cc1 (stereo not shown) [Example 56, 2-(4-methoxy-benzenesulfonyl)-2-methyl-5-phenyl-pent-4-enoic acid hydroxyamide] | 162 to 164
34 | COc1ccc(S(=O)(=O)C(CCCc2ccccc2)(CCCc2ccccc2)C(=O)NO)cc1 [Example 57, 2-(4methoxy-benzenesulfonyl)-5phenyl-2-(3-phenyl-propyl)-pentanoic acid hydroxyamide] | 118 to 120
35 | C=CCC(CC=C)(C(=O)NO)S(=O)(=O)c1ccc(OC)cc1 [Example 58, 2-allyl-2-(4-methoxy-benzenesulfonyl)-pent-4-enoic acid hydroxyamide] | 114 to 116
36 | COc1ccc(S(=O)(=O)C(C)(Cc2cccnc2)C(=O)NO)cc1 (stereo not shown) [Example 61, N-hydroxy-2-(4-methoxy-benzenesulfonyl)-2-methyl-3-pyridin-3-yl-propionamide] | 98
37 | CCCCCCCCC(Cc1cccnc1)(C(=O)NO)S(=O)(=O)c1ccc(OC)cc1 (stereo not shown) [Example 62, 2-(4-Methoxy-benzenesulfonyl)-2-pyridin-3-ylmethyl-decanoic acid hydroxyamide] | 62
38 | COc1ccc(S(=O)(=O)C(CC=C(C)C)(Cc2cccnc2)C(=O)NO)cc1 (stereo not shown) [Example 63, 2-(4-Methoxy-benzenesulfonyl)-5-methyl-2-pyridin-3-ylmethyl-hex-4-enoic acid hydroxyamide] | 89 to 92
39 | COc1ccc(S(=O)(=O)C(C)(Cc2ccc3ncccc3c2)C(=O)NO)cc1 (stereo not shown) [Example 67, N-Hydroxy-2-(4-methoxy-benzensulfonyl)-2-methyl-3-quinolin-6-yl-propionamide] | 206
40 | COc1ccc(S(=O)(=O)C(CCCCOc2ccccc2)(Cc2cccnc2)C(=O)NO)cc1 (stereo not shown) [Example 68, 2-(4-Methoxy-benzenesulfonyl)-6-phenoxy-2-pyridin-3-ylmethyl-hexanoic acid hydroxyamide] | 68
41 | CCCCC(Cc1cccnc1)(C(=O)NO)S(=O)(=O)c1ccc(OC)cc1 (stereo not shown) [Example 70, 2-(4-Methoxy-benzenesulfonyl)-2-pyridin-3-ylmethyl-hexanoic acid hydroxyamide] | 70
42 | CCCCCC#CCC(CC#CCCCCC)(C(=O)NO)S(=O)(=O)c1ccc(OC)cc1 [Example 71, 2-(4-methoxy-benzenesulfonyl)-2-oct-2-ynyl-dec-4-ynoic acid hydroxyamide] | 83 to 84
43 | CC#CCC(CC#CC)(C(=O)NO)S(=O)(=O)c1ccc(OC)cc1 [Example 72, 2-(4-Methoxy-benzenesulfonyl)-2-but-2-ynyl-hex-4-ynoic acid hydroxyamide] | 141 to 143
